Laboratory results from ChEMBL document CHEMBL5649166, “RIP3 induces apoptosis independent of pronecrotic kinase activity” (Mol Cell, 2014).

Tests used:
[1] = molecular target: Serine/threonine-protein kinase pim-2 (Homo sapiens) (UniProt Q9P1W9); experiment: Inhibition of human PIM2 using RSRHSSYPAGT as substrate at 1 uM in presence of 32P-ATP by Hotspot assay relative to control; values are per cent of control
[2] = molecular target: Aurora kinase B (Homo sapiens) (UniProt Q96GD4); experiment: Inhibition of human Aurora B using H-LRRASLG as substrate at 1 uM in presence of 32P-ATP by Hotspot assay relative to control; values are per cent of control
Sequence of Aurora kinase B (Homo sapiens) (Q96GD4 whole entry): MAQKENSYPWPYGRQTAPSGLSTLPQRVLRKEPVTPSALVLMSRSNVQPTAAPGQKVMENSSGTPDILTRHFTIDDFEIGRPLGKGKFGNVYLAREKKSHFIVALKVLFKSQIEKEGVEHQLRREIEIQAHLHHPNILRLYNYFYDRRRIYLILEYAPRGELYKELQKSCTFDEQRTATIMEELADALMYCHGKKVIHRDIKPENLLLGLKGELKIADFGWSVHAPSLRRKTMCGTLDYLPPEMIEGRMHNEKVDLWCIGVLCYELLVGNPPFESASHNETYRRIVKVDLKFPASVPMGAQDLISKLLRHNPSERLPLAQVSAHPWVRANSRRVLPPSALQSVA

[3] = molecular target: RAC-gamma serine/threonine-protein kinase (Homo sapiens) (UniProt Q9Y243); experiment: Inhibition of human AKT3 using KGSGSGRPRTSSFAEG as substrate at 1 uM in presence of 32P-ATP by Hotspot assay relative to control; values are per cent of control
Sequence of RAC-gamma serine/threonine-protein kinase (Homo sapiens) (Q9Y243 whole entry): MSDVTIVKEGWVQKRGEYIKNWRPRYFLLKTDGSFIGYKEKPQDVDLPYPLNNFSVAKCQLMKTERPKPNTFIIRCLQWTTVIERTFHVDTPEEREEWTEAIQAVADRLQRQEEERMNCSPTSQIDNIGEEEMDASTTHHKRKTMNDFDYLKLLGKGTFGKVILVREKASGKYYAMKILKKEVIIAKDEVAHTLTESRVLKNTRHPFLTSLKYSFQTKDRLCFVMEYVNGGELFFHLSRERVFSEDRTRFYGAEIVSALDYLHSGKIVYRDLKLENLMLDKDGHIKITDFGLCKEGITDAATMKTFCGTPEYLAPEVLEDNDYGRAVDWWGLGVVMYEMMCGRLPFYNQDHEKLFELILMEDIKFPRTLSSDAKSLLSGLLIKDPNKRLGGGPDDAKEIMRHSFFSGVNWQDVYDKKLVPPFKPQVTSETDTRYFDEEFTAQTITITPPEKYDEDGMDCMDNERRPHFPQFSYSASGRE

[4] = molecular target: Fibroblast growth factor receptor 1 (Homo sapiens) (UniProt P11362); experiment: Inhibition of human FGFR1 using poly[Glu:Tyr] (4:1) as substrate at 1 uM in presence of 32P-ATP by Hotspot assay relative to control; values are per cent of control
Sequence of Fibroblast growth factor receptor 1 (Homo sapiens) (P11362 22-822 limits assumed): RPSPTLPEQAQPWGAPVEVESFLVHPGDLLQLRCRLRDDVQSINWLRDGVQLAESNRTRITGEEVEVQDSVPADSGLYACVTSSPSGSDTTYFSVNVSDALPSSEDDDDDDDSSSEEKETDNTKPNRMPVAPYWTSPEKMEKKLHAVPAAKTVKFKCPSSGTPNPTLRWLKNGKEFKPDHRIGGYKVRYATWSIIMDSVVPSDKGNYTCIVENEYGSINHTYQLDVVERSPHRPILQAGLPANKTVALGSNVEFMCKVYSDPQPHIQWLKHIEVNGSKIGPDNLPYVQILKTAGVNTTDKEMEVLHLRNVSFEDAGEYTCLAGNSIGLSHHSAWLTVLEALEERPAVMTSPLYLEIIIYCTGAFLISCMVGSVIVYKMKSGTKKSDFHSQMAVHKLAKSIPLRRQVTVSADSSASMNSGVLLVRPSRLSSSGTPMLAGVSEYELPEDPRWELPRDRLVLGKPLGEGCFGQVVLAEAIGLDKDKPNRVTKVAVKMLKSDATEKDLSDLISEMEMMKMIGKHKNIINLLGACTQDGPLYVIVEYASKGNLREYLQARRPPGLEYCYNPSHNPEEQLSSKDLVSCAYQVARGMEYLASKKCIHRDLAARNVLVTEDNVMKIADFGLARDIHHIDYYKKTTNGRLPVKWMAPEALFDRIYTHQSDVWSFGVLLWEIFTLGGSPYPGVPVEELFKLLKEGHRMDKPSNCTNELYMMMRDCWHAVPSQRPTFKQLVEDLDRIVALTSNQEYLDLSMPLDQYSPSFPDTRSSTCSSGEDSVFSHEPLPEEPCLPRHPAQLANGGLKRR

[5] = molecular target: MAP kinase-interacting serine/threonine-protein kinase 2 (Homo sapiens) (UniProt Q9HBH9); experiment: Inhibition of human MNK2 using myelin basic protein as substrate at 1 uM in presence of 32P-ATP by Hotspot assay relative to control; values are per cent of control
Sequence of MAP kinase-interacting serine/threonine-protein kinase 2 (Homo sapiens) (Q9HBH9 whole entry, looked up): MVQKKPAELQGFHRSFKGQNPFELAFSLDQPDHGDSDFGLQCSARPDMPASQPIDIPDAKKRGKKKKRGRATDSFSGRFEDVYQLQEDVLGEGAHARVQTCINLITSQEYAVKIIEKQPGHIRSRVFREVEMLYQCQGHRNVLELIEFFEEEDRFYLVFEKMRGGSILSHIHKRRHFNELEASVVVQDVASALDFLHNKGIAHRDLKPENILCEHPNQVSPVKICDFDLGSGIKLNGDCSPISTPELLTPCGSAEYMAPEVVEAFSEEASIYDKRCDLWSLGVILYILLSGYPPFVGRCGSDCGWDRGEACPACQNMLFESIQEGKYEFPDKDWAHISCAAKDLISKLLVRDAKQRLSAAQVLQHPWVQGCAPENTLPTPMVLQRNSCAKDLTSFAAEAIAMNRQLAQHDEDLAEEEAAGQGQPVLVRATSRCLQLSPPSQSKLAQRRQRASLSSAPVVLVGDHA

[6] = molecular target: T1, Muscle, skeletal receptor tyrosine-protein kinase (Homo sapiens) (UniProt O15146); experiment: Inhibition of human MUSK using myelin basic protein as substrate at 1 uM in presence of 32P-ATP by Hotspot assay relative to control; values are per cent of control
T1 sequence (whole entry): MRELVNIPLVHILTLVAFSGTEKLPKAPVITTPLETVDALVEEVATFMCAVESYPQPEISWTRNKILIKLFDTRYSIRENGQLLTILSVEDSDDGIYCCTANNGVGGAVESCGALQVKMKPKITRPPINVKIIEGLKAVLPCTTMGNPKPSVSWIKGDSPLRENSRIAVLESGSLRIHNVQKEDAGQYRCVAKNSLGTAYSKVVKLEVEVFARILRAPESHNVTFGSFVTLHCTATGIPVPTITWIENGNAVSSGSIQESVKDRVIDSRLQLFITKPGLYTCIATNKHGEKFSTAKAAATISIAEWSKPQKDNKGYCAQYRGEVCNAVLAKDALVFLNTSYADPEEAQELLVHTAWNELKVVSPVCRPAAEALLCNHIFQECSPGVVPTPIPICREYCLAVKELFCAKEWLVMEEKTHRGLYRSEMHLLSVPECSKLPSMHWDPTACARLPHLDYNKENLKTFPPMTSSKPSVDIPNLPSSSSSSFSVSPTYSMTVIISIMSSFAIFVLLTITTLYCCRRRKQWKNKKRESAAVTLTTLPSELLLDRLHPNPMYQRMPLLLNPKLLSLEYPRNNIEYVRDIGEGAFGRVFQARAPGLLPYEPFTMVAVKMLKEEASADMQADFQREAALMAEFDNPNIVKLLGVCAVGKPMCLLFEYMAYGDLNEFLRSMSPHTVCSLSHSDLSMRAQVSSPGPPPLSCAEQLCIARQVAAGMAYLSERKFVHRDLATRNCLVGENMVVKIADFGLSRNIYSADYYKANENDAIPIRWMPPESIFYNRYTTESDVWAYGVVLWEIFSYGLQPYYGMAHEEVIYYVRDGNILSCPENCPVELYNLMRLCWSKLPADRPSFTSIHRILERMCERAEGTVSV

[7] = molecular target: T2, Mitogen-activated protein kinase kinase kinase 2 (Homo sapiens) (UniProt Q9Y2U5); experiment: Inhibition of human MEKK2 using myelin basic protein as substrate at 1 uM in presence of 32P-ATP by Hotspot assay relative to control; values are per cent of control
T2 sequence (whole entry): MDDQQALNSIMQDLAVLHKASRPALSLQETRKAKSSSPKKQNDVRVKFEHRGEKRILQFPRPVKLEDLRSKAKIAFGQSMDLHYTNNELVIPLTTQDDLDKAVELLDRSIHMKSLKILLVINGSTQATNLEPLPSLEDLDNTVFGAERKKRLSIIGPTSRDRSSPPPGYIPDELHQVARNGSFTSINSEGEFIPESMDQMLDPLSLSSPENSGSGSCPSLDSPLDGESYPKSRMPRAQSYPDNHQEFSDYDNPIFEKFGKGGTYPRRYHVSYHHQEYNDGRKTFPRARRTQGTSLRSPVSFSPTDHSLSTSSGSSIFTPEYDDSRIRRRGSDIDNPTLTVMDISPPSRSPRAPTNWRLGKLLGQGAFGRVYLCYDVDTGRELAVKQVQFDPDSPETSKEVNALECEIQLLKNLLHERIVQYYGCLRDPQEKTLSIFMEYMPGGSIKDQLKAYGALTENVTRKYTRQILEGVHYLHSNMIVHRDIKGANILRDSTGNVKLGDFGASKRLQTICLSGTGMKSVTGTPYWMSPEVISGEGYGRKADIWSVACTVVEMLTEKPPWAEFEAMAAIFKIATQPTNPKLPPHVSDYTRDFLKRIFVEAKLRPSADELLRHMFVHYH

[8] = molecular target: Wee1-like protein kinase (Homo sapiens) (UniProt P30291); experiment: Inhibition of human WEE1 using CDK1 (D146N)/cyclin B1 as substrate at 1 uM in presence of 32P-ATP by Hotspot assay relative to control; values are per cent of control
Sequence of Wee1-like protein kinase (Homo sapiens) (P30291 whole entry, looked up): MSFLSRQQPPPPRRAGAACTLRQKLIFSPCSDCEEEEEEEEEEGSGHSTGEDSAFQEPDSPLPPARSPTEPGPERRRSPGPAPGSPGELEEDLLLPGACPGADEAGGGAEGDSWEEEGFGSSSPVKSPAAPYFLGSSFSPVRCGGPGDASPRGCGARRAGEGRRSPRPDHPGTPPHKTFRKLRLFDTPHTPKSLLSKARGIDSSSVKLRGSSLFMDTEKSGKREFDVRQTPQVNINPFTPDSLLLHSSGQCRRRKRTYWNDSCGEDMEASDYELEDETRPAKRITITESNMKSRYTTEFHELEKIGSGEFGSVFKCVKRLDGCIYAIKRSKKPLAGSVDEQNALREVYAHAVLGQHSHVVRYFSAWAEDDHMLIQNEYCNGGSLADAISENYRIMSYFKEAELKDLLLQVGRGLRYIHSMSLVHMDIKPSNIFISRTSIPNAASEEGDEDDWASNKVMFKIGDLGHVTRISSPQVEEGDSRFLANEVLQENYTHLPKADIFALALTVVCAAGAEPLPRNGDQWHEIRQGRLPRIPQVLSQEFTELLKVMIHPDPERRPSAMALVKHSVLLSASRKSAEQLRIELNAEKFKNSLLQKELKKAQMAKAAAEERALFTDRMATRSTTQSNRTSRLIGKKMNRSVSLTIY

[9] = molecular target: Serine/threonine-protein kinase 25 (Homo sapiens) (UniProt O00506); experiment: Inhibition of human STK25/YSK1 using myelin basic protein as substrate at 1 uM in presence of 32P-ATP by Hotspot assay relative to control; values are per cent of control
Sequence of Serine/threonine-protein kinase 25 (Homo sapiens) (O00506 whole entry, looked up): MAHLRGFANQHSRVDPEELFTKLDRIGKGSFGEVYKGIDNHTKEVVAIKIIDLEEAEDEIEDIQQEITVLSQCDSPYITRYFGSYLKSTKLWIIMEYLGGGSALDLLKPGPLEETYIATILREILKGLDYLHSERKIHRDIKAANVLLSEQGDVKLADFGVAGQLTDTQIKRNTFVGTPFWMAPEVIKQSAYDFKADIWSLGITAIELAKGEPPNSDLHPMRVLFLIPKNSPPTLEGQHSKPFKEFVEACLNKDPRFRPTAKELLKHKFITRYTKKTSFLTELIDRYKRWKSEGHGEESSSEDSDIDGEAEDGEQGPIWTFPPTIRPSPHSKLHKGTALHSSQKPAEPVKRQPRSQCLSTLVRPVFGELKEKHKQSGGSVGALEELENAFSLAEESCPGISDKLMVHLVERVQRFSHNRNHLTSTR

Sequence of Serine/threonine-protein kinase pim-2 (Homo sapiens) (Q9P1W9 whole entry, looked up): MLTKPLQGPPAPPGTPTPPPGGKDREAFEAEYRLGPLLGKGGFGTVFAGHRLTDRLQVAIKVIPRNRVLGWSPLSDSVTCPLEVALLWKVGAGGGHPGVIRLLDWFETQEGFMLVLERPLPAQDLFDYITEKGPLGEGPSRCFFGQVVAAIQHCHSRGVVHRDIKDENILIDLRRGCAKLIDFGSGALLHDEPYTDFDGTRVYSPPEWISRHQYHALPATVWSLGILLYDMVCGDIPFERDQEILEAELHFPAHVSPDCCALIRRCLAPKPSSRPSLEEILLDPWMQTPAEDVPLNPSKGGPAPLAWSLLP

Which residual activity [1] does the source give for CC(C)S(=O)(=O)c1ccc2nccc(Nc3ccc4scnc4c3)c2c1 here?
Its residual activity is 94.9%.

What about the residual activity [2] of the same molecule?
The residual activity was 97.5%.

What about the residual activity [3] of the same molecule?
Its residual activity is 94.3%.

What about the residual activity [4] of the same molecule?
Its residual activity is 63.3%.

What about the residual activity [5] of the same molecule?
The residual activity was 96%.

And the residual activity [6]?
The residual activity was 98.1%.

And the residual activity [7]?
Its residual activity is 92.2%.

What about the residual activity [8] of the same molecule?
Its residual activity is 106%.

And the residual activity [9]?
Its residual activity is 98.8%.

Cc1cc(-c2cnc(N)c3c(-c4ccc5scnc5c4)csc23)n(C)n1 was tested. Which residual activity [1] did it give?
The residual activity was 93.7%.

And the residual activity [2]?
Its residual activity is 89.8%.

What about the residual activity [3] of the same molecule?
Its residual activity is 96.1%.

And the residual activity [4]?
The residual activity was 59.1%.

And the residual activity [5]?
Its residual activity is 97.9%.

What about the residual activity [6] of the same molecule?
The residual activity was 105%.

What about the residual activity [7] of the same molecule?
Its residual activity is 106%.

What about the residual activity [8] of the same molecule?
The residual activity was 72.9%.

What about the residual activity [9] of the same molecule?
Its residual activity is 106%.

Which residual activity [1] does the source give for CNC(=O)c1ccc2c(c1)ncn2-c1ccc(CC(=O)OC(C)(C)C)cc1 here?
Its residual activity is 90.8%.

What about the residual activity [2] of the same molecule?
The residual activity was 82.1%.

And the residual activity [3]?
The residual activity was 98.4%.

What about the residual activity [4] of the same molecule?
The residual activity was 56.4%.

What about the residual activity [5] of the same molecule?
Its residual activity is 70.6%.

What about the residual activity [6] of the same molecule?
The residual activity was 103%.

And the residual activity [7]?
The residual activity was 100%.

What about the residual activity [8] of the same molecule?
Its residual activity is 108%.

What about the residual activity [9] of the same molecule?
The residual activity was 104%.
